Measured values as given in patent US20230286973A1, “PROTEIN SECRETION INHIBITORS” (KEZAR LIFE SCIENCES, priority 2020, published 2023).
Values joined by “and” are separate entries in the source; they are usually repeats but may differ in a detail not shown here. Equal entries are not always repeated. Where two headings read alike, the source gives them in different places.

Tests used:
[1] = tested on: PD1-ss+10aa/Gaussia Luciferase; assay: Dox-Induced PD1-ss-Gluc Assay; format: cell-based; settings: 24 hr Dox induction, 293FRT/TO cells, read-out: 24 hr Dox Inducible PD1ssGluc 293FRT/TO: Mean IC50
Procedure, shortened: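 Flp-In 293 T-REx cells stably carrying a doxycycline-inducible Gaussia luciferase fused to the PD1 signal sequence plus 10 aa were plated the day before. Compound dilutions in DMSO/media containing doxycycline were then added and incubated at 37 °C, 5% CO2. Data for undefined stereochemistry refer to stereoisomer mixtures.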

[2] = tested on: TNFα-FL/Gaussia Luciferase; assay: Dox Induced TNFα-FL-Gluc Assay; format: cell-based; settings: for IC50: 24 hr Dox induction, 293FRT/TO cells, read-out: 24 hr Dox Inducible TNFaFLGluc 293FRT/TO: Mean IC50; for 24 hr Dox Inducible TNFaFLGluc 293FRT/TO: TNF/PD1: ratio of TNFaFLGluc IC50 to PD1ssGluc IC50
Procedure, shortened: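 Doxycycline-inducible Gaussia luciferase-tagged full-length TNFα (1-233) was expressed in stable Flp-In 293 T-REx cells. Compounds were co-added with doxycycline and incubated at 37 °C, 5% CO2.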

[3] = tested on: HER3-ss+4aa/Gaussia Luciferase; assay: Dox-Induced Her3-ss-Gluc Assay; format: cell-based; settings: 24 hr Dox induction, 293FRT/TO cells, read-out: 24 hr Dox Inducible Her3(ss + 4)Gluc 293FRT/TO: Mean IC50
Procedure, shortened: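 Reporter line: Flp-In 293 T-REx, T-REx-regulated HER3-ss+4aa fused to Gaussia luciferase. Compound co-added with doxycycline after overnight plating, 37° C., 5% CO2.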

[4] = tested on: IL-2-FL/Gaussia Luciferase; assay: Dox Induced IL2-FL-Gluc Assay; format: cell-based; settings: for IC50: 24 hr Dox induction, 293FRT/TO cells, read-out: 24 hr Dox Inducible IL2FLGluc 293FRT/TO: Mean IC50; for 24 hr Dox Inducible IL2FLGluc 293FRT/TO: IL2/PD1: ratio of IL2FLGluc IC50 to PD1ssGluc IC50
Procedure, shortened: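 Doxycycline induces an IL-2(1-153)–Gaussia luciferase fusion in a stable Flp-In 293 T-REx line. Compound exposure runs alongside induction at 37° C.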

[5] = tested on: multiple myeloma cell line NCI-H929; assay: H929 Cell Viability Assay; format: cell-based, human; settings: NCI-H929 cells, Celltiter-Glo
Procedure, shortened: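 Viability is scored by CellTiter-Glo luminescence following a 48-hour treatment at 37° C. Data for structures shown without stereochemistry refer to stereoisomer mixtures.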

[6] = tested on: multiple myeloma cell line U266B1; assay: U266 Cell Viability Assay; format: cell-based, human; settings: U266B1 cells, Celltiter-Glo
Procedure, shortened: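 Viability is measured as luciferase signal from CellTiter-Glo following a 48-hour incubation with compound at 37° C. under 5% CO2. Where structures lack drawn stereochemistry, values refer to stereoisomer mixtures.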

[7] = Liver Microsome Stability Assay (rat); settings: rat liver microsomes, with NADPH, 1.0 uM compound
Procedure: (§1) Stability of a compound was assessed in the presence of liver microsomes from various sources—mouse, rat, monkey and human liver microsomes. 1.0 uM compound, 0.4% DMSO in 0.1 M Potassium Phosphate with 1.0 mg/mL liver microsomes, were incubated at 37° C. with or without 1 mM NADPH. The samples were quenched at 0, and 30 minutes.

[8] = Liver Microsome Stability Assay (mouse); settings: mouse liver microsomes, with NADPH, 1.0 uM compound
Procedure: as §1

[9] = Liver Microsome Stability Assay (human); settings: human liver microsomes, with NADPH, 1.0 uM compound
Procedure: as §1

[10] = Liver Microsome Stability Assay (monkey); settings: monkey liver microsomes, with NADPH, 1.0 uM compound
Procedure: as §1

[11] = '<=>' given where both are I.A.

Compound	IC50 [1]	IC50 [2]	24 hr Dox Inducible TNFaFLGluc 293FRT/TO: TNF/PD1 [2]	IC50 [3]	IC50 [4]	24 hr Dox Inducible IL2FLGluc 293FRT/TO: IL2/PD1 [4]	EC50 ([5]; Homo sapiens, NCI-H929, 48 h)	EC50 ([6]; Homo sapiens, U-266, 48 h)	Liver Microsome Stability (Multiple Species): Rat - % Remaining after 30 min w/NADPH [7]	Liver Microsome Stability (Multiple Species): Mouse - % Remaining after 30 min w/NADPH [8]	Liver Microsome Stability (Multiple Species): Human - % Remaining after 30 min w/NADPH [9]	Liver Microsome Stability (Multiple Species): Monkey - % Remaining after 30 min w/NADPH [10]	IC50 ([1]; mean)	IC50 ([2]; mean)	24 hr Dox Inducible TNFaFLGluc 293FRT/TO: TNF/PD1 [2, 11]	IC50 ([3]; mean)	IC50 ([4]; mean)	24 hr Dox Inducible IL2FLGluc 293FRT/TO: IL2/PD1 [4, 11]	EC50 ([5]; 48 hr)	EC50 ([6]; 48 hr)
CC(=O)N1CCC(Nc2ccc(N3CCC[C@@H]3c3csc(NC(=O)c4cccn4Cc4ccnc(F)c4)n3)cc2)CC1 [Compound A147, (R)-N-(4-(1-(4-((1-acetylpiperidin-4-yl)amino)phenyl)pyrrolidin-2-yl)thiazol-2-yl)-1-((2-fluoropyridin-4-yl)methyl)-1H-pyrrole-2-carboxamide]	0.0719 µM	0.316 µM	4.4	0.106 µM	0.109 µM	1.5	0.469 µM	3.48 µM	2.95%	5.61%	8.6%	0.94%								
CN1CCC(Oc2ccc(N3CCC[C@@H]3c3csc(NC(=O)c4cccn4Cc4ccncc4)n3)cc2)CC1 [Compound A8, (R)-N-(4-(1-(4-((1-methylpiperidin-4-yl)oxy)phenyl)pyrrolidin-2-yl)thiazol-2-yl)-1-(pyridin-4-ylmethyl)-1H-pyrrole-2-carboxamide]	0.293 µM	13.4 µM	45.5	0.588 µM	0.806 µM	2.7	2 µM	2.94 µM	11%	3.14%	3.14%	11.3%								
O=C(Nc1nc([C@@H]2CCN(c3ccccn3)C2)cs1)c1cccn1Cc1ccncc1 [Compound E43, (R)-N-(4-(1-(pyridin-2-yl)pyrrolidin-3-yl)thiazol-2-yl)-1-(pyridin-4-ylmethyl)-1H-pyrrole-2-carboxamide]							16.7 µM	20.3 µM	0.9%	0.5%	0.28%	0.35%	1.14 µM	21.4 µM	18.8	3.15 µM	10.9 µM	9.6		
O=C(Nc1nc([C@H]2CCCN2c2ccc(C(F)(F)F)cc2)cs1)c1cccn1Cc1ccnc(F)c1 [Compound A56, (R)-1-((2-fluoropyridin-4-yl)methyl)-N-(4-(1-(4-(trifluoromethyl)phenyl)pyrrolidin-2-yl)thiazol-2-yl)-1H-pyrrole-2-carboxamide]	0.0058 µM and 0.00466 µM and 0.00485 µM	0.111 µM and 0.0633 µM and 0.0969 µM	19.1 and 13.6 and 20	0.00954 µM and 0.00851 µM and 0.00739 µM	0.0104 µM and 0.00677 µM and 0.00874 µM	1.8 and 1.5	0.152 µM	> 25 µM	48.3% and 54.8%	81.1% and 81.8%	43.9% and 46%	27.3% and 25.8%							0.149 µM and 0.165 µM	> 24.8 µM
O=C(Nc1nc(/C=C/c2ccncn2)cs1)c1cccn1Cc1ccncc1 [Compound B44, (E)-1-(pyridin-4-ylmethyl)-N-(4-(2-(pyrimidin-4-yl)vinyl)thiazol-2-yl)-1H-pyrrole-2-carboxamide]	3.36 µM	> 25 µM	>7.44	> 25 µM	> 25 µM	>7.4	> 25 µM	> 25 µM	1.3%	4.87%	0.24%	0.36%								
